Results reported in the NIST ThermoML archive (doi:10.1016/j.jct.2010.02.009).
Several values for one entry are separate records, joined by “and”; a condition that tells them apart may be missing. Equal entries are not always repeated.

Tests used:
[1] = refractive index (other wavelength) (dimensionless); xn = mol fraction of the nth substance listed; settings: 101 kPa, Liquid, Wavelength=632.8 nm, Standard Abbe refractometry
[2] = heat capacity at constant pressure per volume; xn = mol fraction of the nth substance listed; settings: 101 kPa, Liquid, Large sample (1 g) DSC, x1 = 0.497

N#Cc1ccccc1 [benzonitrile] + CCCCCCCCC
[1]
Settings	refractive index
278.24 K, x1 = 1	1.5324
279.25 K, x1 = 1	1.5319
281.33 K, x1 = 1	1.5308
282.96 K, x1 = 1	1.5301
284.3 K, x1 = 1	1.5294
285.4 K, x1 = 0.0945	1.4145
285.4 K, x1 = 0.2042	1.4234
285.4 K, x1 = 0.2947	1.4313
285.4 K, x1 = 0.3866	1.4402
285.4 K, x1 = 0.4969	1.452
285.4 K, x1 = 0.5967	1.4642
285.4 K, x1 = 0.6844	1.4759
285.4 K, x1 = 0.7992	1.4932
285.4 K, x1 = 0.865	1.504
285.43 K, x1 = 1	1.5288

[2]
Settings	heat capacity
278.51 K	1795700 J/K/m3
279.06 K	1803600 J/K/m3
279.55 K	1808700 J/K/m3
280 K	1811600 J/K/m3
280.41 K	1816400 J/K/m3
280.77 K	1824500 J/K/m3
281.11 K	1829200 J/K/m3
281.41 K	1830500 J/K/m3
281.68 K	1829700 J/K/m3
281.93 K	1835700 J/K/m3
282.15 K	1841800 J/K/m3
282.35 K	1845300 J/K/m3
282.53 K	1847600 J/K/m3
282.7 K	1849700 J/K/m3
282.85 K	1856600 J/K/m3
282.98 K	1859600 J/K/m3
283.1 K	1862200 J/K/m3
283.21 K	1866700 J/K/m3
283.31 K	1869700 J/K/m3
283.4 K	1868700 J/K/m3
283.49 K	1873100 J/K/m3
283.56 K	1868300 J/K/m3
283.69 K	1880300 J/K/m3
283.88 K	1913600 J/K/m3
283.95 K	1908800 J/K/m3
284.03 K	1934300 J/K/m3
284.09 K	1950500 J/K/m3
284.11 K	1960300 J/K/m3
284.12 K	1970200 J/K/m3
284.13 K	1977600 J/K/m3
284.15 K	1985800 J/K/m3
284.16 K	1998500 J/K/m3
284.18 K	2005300 J/K/m3
284.19 K	2006000 J/K/m3
284.2 K	2015800 J/K/m3
284.21 K	2022500 J/K/m3
284.22 K	2037100 J/K/m3
284.23 K	2046300 J/K/m3
284.24 K	2060600 J/K/m3
284.25 K	2071500 J/K/m3
284.26 K	2047100 J/K/m3 [middle of 6 runs]
284.27 K	1937800 J/K/m3 [middle of 5 runs]
284.28 K	1815400 J/K/m3 and 1840700 J/K/m3
284.29 K	1794400 J/K/m3
